Test results published in US20240327334A1, “Covalent Inhibitors As Antiviral Agents” (Enanta Pharmaceuticals, Inc., priority 2022, published 2024).
Read-outs that look alike come from different tables or passages of the source.

What was measured:
SARS-CoV-2 replicon = test: microbe, parasite or virus in culture; assay type: cell-based; details: Severe acute respiratory syndrome coronavirus 2, Huh-7
[1] = biological target: SARS-CoV-2 Papain-like (PLpro) protease (Severe acute respiratory syndrome coronavirus 2, UniProt P0DTD1); test: SARS-CoV-2 Papain-like (PLpro) protease biochemical enzyme inhibition assay (ubiquitin-fluorophore substrate, Ub-R110); details: Ub-R110 substrate; run in duplicate; read-out: PLpro IC50
SARS-CoV-2 USA-WA1/2020 = test: microbe, parasite or virus in culture; assay type: cell-based; details: read-out: SARS-CoV-2 BSL3 EC50
[2] = Severe acute respiratory syndrome coronavirus 2, 144 h, Vero 76 cells, SARS-CoV-2 USA-WA1/2020, neutral red, day 6

C#CCNC(=O)C(=O)NCc1ccc(-c2ccn(C(F)F)n2)cc1C(=O)NC1(c2ccc(F)c3ccccc23)CC1 [Example 126]
EC50 (SARS-CoV-2 replicon): < 1000 nM
IC50 [1]: < 100 nM
EC50 (SARS-CoV-2 USA-WA1/2020; [2]): < 1000 nM

COC(=O)/C=C/CCNC(=O)C(=O)NCc1ccccc1C(=O)N[C@H](C)c1cccc2ccccc12 [Example 1]
EC50 (SARS-CoV-2 replicon): < 1000 nM
IC50 [1]: < 100 nM
EC50 (SARS-CoV-2 USA-WA1/2020; [2]): < 1000 nM

N#CCNC(=O)C(=O)NCc1ccccc1C(=O)NC1(c2cc(Cl)cc(-c3cccs3)c2)CC1 [Example 457, N1-(2-((1-(3-chloro-5-(thiophen-2-yl)phenyl)cyclopropyl)carbamoyl)benzyl)-N2-(cyanomethyl)oxalamide]
EC50 (SARS-CoV-2 replicon): 1000 to 10000 nM
IC50 [1]: < 100 nM
EC50 (SARS-CoV-2 USA-WA1/2020; Severe acute respiratory syndrome coronavirus 2, Vero 76, 144 h): 1000 to 10000 nM

COC(=O)/C=C/CNC(=O)C(=O)NCc1ccccc1C(=O)N[C@H](C)c1cccc2ccccc12 [Example 2]
EC50 (SARS-CoV-2 replicon): < 1000 nM
IC50 [1]: < 100 nM
EC50 (SARS-CoV-2 USA-WA1/2020; [2]): < 1000 nM

O=C(C#CCNC(=O)C(=O)NCc1ccccc1C(=O)NC1(c2cccc3ccccc23)CC1)NC1CC1 [Example 518]
EC50 (SARS-CoV-2 replicon): < 1000 nM
IC50 [1]: < 100 nM
EC50 (SARS-CoV-2 USA-WA1/2020; [2]): < 1000 nM

O=C(NCC#CC(=O)N1CC2CC2C1)C(=O)NCc1ccccc1C(=O)NC1(c2ccc3ccccc3c2)CC1 (stereo not drawn) [Example 527]
EC50 (SARS-CoV-2 replicon): < 1000 nM
IC50 [1]: < 100 nM
EC50 (SARS-CoV-2 USA-WA1/2020; [2]): < 1000 nM

O=C(NCC#CC(=O)N1CC(F)(F)C1)C(=O)NCc1ccccc1C(=O)NC1(c2ccc3ccccc3c2)CC1 [Example 535]
EC50 (SARS-CoV-2 replicon): < 1000 nM
IC50 [1]: < 100 nM
EC50 (SARS-CoV-2 USA-WA1/2020; [2]): 1000 to 10000 nM

O=C(C#CCNC(=O)C(=O)NCc1ccccc1C(=O)NC1(c2ccc3ccccc3c2)CC1)N[C@]12C[C@](C(F)(F)F)(C1)C2 [Example 537]
EC50 (SARS-CoV-2 replicon): < 1000 nM
IC50 [1]: < 100 nM
EC50 (SARS-CoV-2 USA-WA1/2020; [2]): < 1000 nM

COC(=O)/C=C/CCNC(=O)C(=O)NCc1ccccc1C(=O)NC1(c2cccc3ccccc23)CC1 [Example 3]
EC50 (SARS-CoV-2 replicon): < 1000 nM
IC50 [1]: < 100 nM
EC50 (SARS-CoV-2 USA-WA1/2020; [2]): < 1000 nM

N#CCNC(=O)C(=O)NCc1ccc(-c2ccn(C(F)F)n2)cc1C(=O)NC1(c2ccc(F)c3ccccc23)CC1 [Example 125]
EC50 (SARS-CoV-2 replicon): 1000 to 10000 nM
IC50 [1]: < 100 nM
EC50 (SARS-CoV-2 USA-WA1/2020; [2]): < 1000 nM

O=C(NCC#CC(=O)N1CC(F)(F)C1)C(=O)NCc1ccccc1C(=O)NC1(c2cccc3ccccc23)CC1 [Example 529]
EC50 (SARS-CoV-2 replicon): < 1000 nM
IC50 [1]: < 100 nM
EC50 (SARS-CoV-2 USA-WA1/2020; [2]): < 1000 nM

O=C(NCC#CC(=O)N1CC2CC2C1)C(=O)NCc1ccccc1C(=O)NC1(c2cccc3ccccc23)CC1 (stereo not drawn) [Example 528]
EC50 (SARS-CoV-2 replicon): < 1000 nM
IC50 [1]: < 100 nM
EC50 (SARS-CoV-2 USA-WA1/2020; [2]): < 1000 nM
